Experimental findings from PubChem BioAssay (NCI) are described below.

The structures appear in SMILES notation.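 Five compound concentrations were applied to cells in 96-well plates for 48 hours; endpoints were derived by simple linear interpolation of the resulting dose-response curve. At the GI50, growth is halved. TGI is the concentration that stops growth completely.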

For one experiment, the system named is 786-0 renal. Briefly: DTP human tumour cell line panel, 48 h.
For `COc1ccc(-c2nc(Nc3cc(C)[nH]n3)c3ccccc3n2)cc1`, the GI50 was 1.27 µM and the TGI is more than 31.3 µM.

Turning to `CN(C)CCCn1c(=O)c2ccccc2c2ccccc21`, the GI50 was 12.5 µM and the TGI is more than 100 µM.

Take `O=c1[nH]c(=O)n(C2CC(O)C(COP(=O)(OCc3ccc([N+](=O)[O-])o3)N(CCCCCl)CC(O)CO)O2)cc1F` (configuration not stated): the GI50 was 0.624 µM and the TGI is more than 100 µM.

Molecule `O=C1OC(=O)C(=C\c2ccc3c(c2)OCO3)/C1=C/c1ccc2c(c1)OCO2` registered a TGI of more than 100 µM.

For the molecule `CC(C)NCCCn1c(Sc2cc3c(cc2I)OCO3)nc2c(N)ncnc21`, the GI50 is 0.515 µM and the TGI was more than 100 µM.

For `O=C(/C=C\c1cccc([N+](=O)[O-])c1)/C=C/c1cccc([N+](=O)[O-])c1`, the GI50 is 5.05 µM and the TGI was determined as 22.1 µM.

Take `CN1C(=O)N(C)C2C1NN=c1s/c(=C\c3ccc(C(F)(F)F)cc3)c(=O)n12` (configuration not stated): the GI50 is 3.82 µM and the TGI is more than 100 µM.

Regarding `N#Cc1c(N2CCOCC2)nc(=S)[nH]c1-c1ccco1`, the GI50 was 6.2 µM and the total growth inhibition concentration (TGI) came to 80.8 µM.

For the next experiment, the system named is RPMI-8226 leukemia. Briefly: DTP human tumour cell line panel, 48 h.
For the molecule `CN[C@@H](C)C(=O)N[C@H](C(=O)N1CCC[C@H]1C(=O)Nc1sc(-c2ncco2)nc1-c1ccccc1)C1CCCCC1`, the GI50 was 25.1 µM and the TGI is more than 89.9 µM.

Regarding `CC1=C2[C@@H](CC1)[C@]1(C)O[C@@](c3ccccc3)(C[C@H]1OC(=O)CO)[C@H]2OC(=O)/C=C/c1ccccc1`, the GI50 is 12.8 µM and the TGI stood at 43.7 µM.

Turning to `NC(=O)c1csc(C2OC(CO)C(O)C2O)n1` (configuration not stated), the GI50 is more than 20.1 µM and the concentration for total growth inhibition (TGI) turned out to be 8150 µM.

As for `CCCN(CCS(C)(=O)=O)Cc1ccc(-c2ccc3ncnc(Nc4ccc(OCc5cccc(F)c5)c(Cl)c4)c3c2)o1`, the GI50 was more than 20.8 µM and the concentration for total growth inhibition (TGI) was more than 25 µM.

Take `CC(C)C[C@H](NC(=O)CNC(=O)c1cc(Cl)ccc1Cl)B1OC(=O)CC(CC(=O)O)(C(=O)O)O1` (some centres not stated): the GI50 was 0.0321 µM.

Consider `CCc1ccc2c(c1)N(CCO)C1=C(C(=O)OC1)C2c1cccc(Br)c1` (configuration not stated), for which the GI50 is 0.983 µM and the total growth inhibition concentration (TGI) was 33.5 µM.

On to `CO/N=C(\COc1ccc2c(c1)[nH]c1ccccc12)c1ccc(F)cc1`, for which the GI50 is 43.9 µM and the TGI was more than 100 µM.

As for `COc1ccc(-c2nc(Nc3cc(C)[nH]n3)c3ccccc3n2)cc1`, the GI50 is 4.16 µM and the TGI is 28.6 µM.

Regarding `CN(C)CCCn1c(=O)c2ccccc2c2ccccc21`, the GI50 is 26.9 µM and the concentration for total growth inhibition (TGI) is 77.7 µM.

For the molecule `O=c1[nH]c(=O)n(C2CC(O)C(COP(=O)(OCc3ccc([N+](=O)[O-])o3)N(CCCCCl)CC(O)CO)O2)cc1F` (configuration not stated), the GI50 was less than 0.01 µM and the TGI was more than 49.8 µM.

Molecule `O=C1OC(=O)C(=C\c2ccc3c(c2)OCO3)/C1=C/c1ccc2c(c1)OCO2` displayed a TGI of 97.2 µM.

Regarding `CC(C)NCCCn1c(Sc2cc3c(cc2I)OCO3)nc2c(N)ncnc21`, the GI50 is 1.53 µM and the TGI was more than 47.7 µM.

As for `O=C(/C=C\c1cccc([N+](=O)[O-])c1)/C=C/c1cccc([N+](=O)[O-])c1`, the GI50 was 0.43 µM and the TGI was 1.6 µM.

Turning to `CN1C(=O)N(C)C2C1NN=c1s/c(=C\c3ccc(C(F)(F)F)cc3)c(=O)n12` (configuration not stated), the GI50 is 1.65 µM and the TGI was more than 100 µM.

With `N#Cc1c(N2CCOCC2)nc(=S)[nH]c1-c1ccco1`, the GI50 is 1.58 µM and the TGI is 16.4 µM.

Another experiment relates to NCI-H23 lung. Briefly: DTP human tumour cell line panel, 48 h.
`CN[C@@H](C)C(=O)N[C@H](C(=O)N1CCC[C@H]1C(=O)Nc1sc(-c2ncco2)nc1-c1ccccc1)C1CCCCC1`: the GI50 was 25.8 µM and the TGI is more than 100 µM.

`CC1=C2[C@@H](CC1)[C@]1(C)O[C@@](c3ccccc3)(C[C@H]1OC(=O)CO)[C@H]2OC(=O)/C=C/c1ccccc1`: the GI50 was 17.1 µM and the TGI was found to be 44.9 µM.

Regarding `NC(=O)c1csc(C2OC(CO)C(O)C2O)n1` (configuration not stated), the GI50 is 52.3 µM and the TGI was determined as 5250 µM.

Take `CCCN(CCS(C)(=O)=O)Cc1ccc(-c2ccc3ncnc(Nc4ccc(OCc5cccc(F)c5)c(Cl)c4)c3c2)o1`: the GI50 is more than 25 µM and the concentration for total growth inhibition (TGI) is more than 25 µM.

For `CC(C)C[C@H](NC(=O)CNC(=O)c1cc(Cl)ccc1Cl)B1OC(=O)CC(CC(=O)O)(C(=O)O)O1` (some centres not stated), the GI50 is 0.048 µM and the TGI is 6.44 µM.

With `CCc1ccc2c(c1)N(CCO)C1=C(C(=O)OC1)C2c1cccc(Br)c1` (configuration not stated), the GI50 was 0.66 µM and the TGI came out at 15.6 µM.

On to `CO/N=C(\COc1ccc2c(c1)[nH]c1ccccc12)c1ccc(F)cc1`, for which the GI50 was more than 100 µM and the total growth inhibition concentration (TGI) was more than 100 µM.

Regarding `COc1ccc(-c2nc(Nc3cc(C)[nH]n3)c3ccccc3n2)cc1`, the GI50 is 5.47 µM and the TGI was more than 100 µM.

In the case of `CN(C)CCCn1c(=O)c2ccccc2c2ccccc21`, the GI50 is 17.6 µM and the TGI was 46 µM.

Take `O=c1[nH]c(=O)n(C2CC(O)C(COP(=O)(OCc3ccc([N+](=O)[O-])o3)N(CCCCCl)CC(O)CO)O2)cc1F` (configuration not stated): the GI50 is 2.79 µM and the TGI was more than 100 µM.

For `O=C1OC(=O)C(=C\c2ccc3c(c2)OCO3)/C1=C/c1ccc2c(c1)OCO2`, the TGI was more than 100 µM.

For `CC(C)NCCCn1c(Sc2cc3c(cc2I)OCO3)nc2c(N)ncnc21`, the GI50 was 0.0897 µM and the TGI is more than 100 µM.

Take `O=C(/C=C\c1cccc([N+](=O)[O-])c1)/C=C/c1cccc([N+](=O)[O-])c1`: the GI50 is 4.43 µM and the TGI was more than 100 µM.

On to `CN1C(=O)N(C)C2C1NN=c1s/c(=C\c3ccc(C(F)(F)F)cc3)c(=O)n12` (configuration not stated), for which the GI50 was 2.49 µM and the concentration for total growth inhibition (TGI) was more than 100 µM.

For the molecule `N#Cc1c(N2CCOCC2)nc(=S)[nH]c1-c1ccco1`, the GI50 is 12.1 µM and the TGI is more than 100 µM.
